According to patent publication US12390472B2 (SUZHOU SINOVENT PHARMACEUTICALS CO., LTD., priority 2018, dated 2025):
Read-outs that look alike come from different tables or passages of the source.

Key:
EZH2 enzyme complex = EZH2 enzyme complex (Homo sapiens (Human), UniProt Q15910); assay: Test on EZH2 inhibitory activity (TR-FRET); type: biochemical; conditions: EZH2 enzyme complex 25 ng/uL, histone H3 peptide 4 uM, SAM 2 uM, 300 min; read-out: IC50 of EZH2 inhibition
EZH2 (Y641N) = EZH2 (Y641N) (Homo sapiens (Human), UniProt Q15910, Y641N); assay: Test on EZH2 (Y641N) inhibitory activity; type: biochemical
Chain of EZH2 (Y641N) (Q15910 whole entry Y641N): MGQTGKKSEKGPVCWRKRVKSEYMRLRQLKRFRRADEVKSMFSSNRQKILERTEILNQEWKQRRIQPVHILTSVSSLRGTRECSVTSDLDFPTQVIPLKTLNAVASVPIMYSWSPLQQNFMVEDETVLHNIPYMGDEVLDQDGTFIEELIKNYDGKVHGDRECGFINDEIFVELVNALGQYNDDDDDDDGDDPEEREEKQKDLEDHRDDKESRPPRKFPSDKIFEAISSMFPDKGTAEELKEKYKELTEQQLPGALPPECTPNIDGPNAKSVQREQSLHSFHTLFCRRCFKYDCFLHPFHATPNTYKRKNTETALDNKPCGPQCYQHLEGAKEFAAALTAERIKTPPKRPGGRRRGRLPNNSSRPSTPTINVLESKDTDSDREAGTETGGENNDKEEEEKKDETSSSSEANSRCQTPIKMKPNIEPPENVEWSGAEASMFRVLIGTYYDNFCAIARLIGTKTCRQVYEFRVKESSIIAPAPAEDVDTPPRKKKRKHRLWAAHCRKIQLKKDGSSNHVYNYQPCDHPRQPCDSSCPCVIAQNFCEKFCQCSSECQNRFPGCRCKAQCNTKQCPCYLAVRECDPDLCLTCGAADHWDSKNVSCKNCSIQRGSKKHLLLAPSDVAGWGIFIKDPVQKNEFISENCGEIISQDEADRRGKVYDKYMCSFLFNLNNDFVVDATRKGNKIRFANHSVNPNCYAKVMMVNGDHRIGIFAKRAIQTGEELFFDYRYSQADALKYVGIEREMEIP
Chain of EZH2 (Y641N) (O75530 whole entry partner): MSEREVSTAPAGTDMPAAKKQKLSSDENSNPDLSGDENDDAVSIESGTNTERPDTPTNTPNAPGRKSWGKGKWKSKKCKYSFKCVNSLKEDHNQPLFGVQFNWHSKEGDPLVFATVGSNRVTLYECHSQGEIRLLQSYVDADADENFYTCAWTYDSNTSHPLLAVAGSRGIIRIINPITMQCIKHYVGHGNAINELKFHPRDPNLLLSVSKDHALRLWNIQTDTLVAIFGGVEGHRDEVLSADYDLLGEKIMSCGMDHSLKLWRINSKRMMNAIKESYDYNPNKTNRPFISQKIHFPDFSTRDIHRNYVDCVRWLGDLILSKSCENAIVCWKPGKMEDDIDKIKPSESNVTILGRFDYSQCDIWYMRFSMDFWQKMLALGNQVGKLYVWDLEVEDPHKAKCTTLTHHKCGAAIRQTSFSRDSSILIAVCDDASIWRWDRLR
Chain of EZH2 (Y641N) (Q15022 whole entry partner): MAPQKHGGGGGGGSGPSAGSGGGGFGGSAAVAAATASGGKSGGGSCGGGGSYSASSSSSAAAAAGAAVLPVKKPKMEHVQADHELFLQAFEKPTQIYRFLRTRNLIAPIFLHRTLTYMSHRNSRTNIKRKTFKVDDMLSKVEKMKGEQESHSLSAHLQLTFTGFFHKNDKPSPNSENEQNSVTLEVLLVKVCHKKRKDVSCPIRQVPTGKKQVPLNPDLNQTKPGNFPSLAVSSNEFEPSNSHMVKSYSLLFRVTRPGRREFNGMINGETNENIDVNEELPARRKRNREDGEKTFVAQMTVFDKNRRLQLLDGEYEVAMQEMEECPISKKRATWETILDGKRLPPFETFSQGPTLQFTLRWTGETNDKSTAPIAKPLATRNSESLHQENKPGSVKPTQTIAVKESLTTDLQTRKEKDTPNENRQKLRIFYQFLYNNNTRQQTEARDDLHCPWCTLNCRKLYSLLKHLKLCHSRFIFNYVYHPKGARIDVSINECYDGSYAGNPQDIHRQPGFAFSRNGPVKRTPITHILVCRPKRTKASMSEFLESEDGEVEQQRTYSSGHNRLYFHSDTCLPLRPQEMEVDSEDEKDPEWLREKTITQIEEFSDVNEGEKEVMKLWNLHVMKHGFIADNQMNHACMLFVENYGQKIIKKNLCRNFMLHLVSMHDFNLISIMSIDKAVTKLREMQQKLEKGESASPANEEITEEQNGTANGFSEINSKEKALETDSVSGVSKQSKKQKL
Procedure: (§1) Compounds at different concentrations were dissolved in 100% DMSO and transferred to test plates, and the final concentration of DMSO was 1%. Enzyme solution and substrate SAM solution were prepared with 1-fold reaction buffer (optimized Tris buffer). 5 uL of enzyme solution was added to the test plate and wells only added with 5 uL of reaction buffer were used as negative control wells. After incubation at room temperature for 15 min, the plate was added with 5 uL of substrate solution per well to initiate the reaction, and then incubated at room temperature for 60 min. 5 uL of receptor solution was added and the plate was incubated away from light at room temperature for 60 min. 10 uL of donor solution was added and the plate was incubated away from light at room temperature for 30 min. The endpoint values were read on the Envision and the IC50 was calculated.
(§2) Data were fitted by GraphPad Prism 5 software and inhibition rate was calculated according to equation (1) Inh %=(Max−Signal)/(Max−Min)×100 (1)
(§3) IC50 was calculated using equation (2) Y=Bottom+(Top−Bottom)/(1+10^((Log IC50−X)×Hill Slope))
(§4) Y: inhibition rate; X: concentration of the compound

WSU-DLCL2 = assay: Methylated lysine of histone-H3 (H3K27Me3) detection by ELISA, WSU-DLCL2 cells; type: cell-based; conditions: Homo sapiens, WSUDLCL2, 168 h; WSU-DLCL2, 7 days treatment, H3K27Me3 normalized to total histone-3; read-out: IC50 of cell methylation, WSU-DLCL2
Summary of the method: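 Cells were treated 7 days with compound (4-fold dilutions, 20 uM-0.009 nM), then lysed hypotonically with NaCl adjusted to ~100 mM. Lysate-coated plates were probed by ELISA for H3K27Me3 and total H3 (TMB, A450). Methylation signal was normalised to total H3 before curve fitting.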

EZH2 (Y641F) = EZH2 (Y641F) (Homo sapiens (Human), UniProt Q15910, Y641F); assay: Test on EZH2 (Y641F) inhibitory activity; type: biochemical
Chain of EZH2 (Y641F) (Q15910 whole entry Y641F): as the sequence (Q15910 whole entry Y641N) above, with N641F counted along it
Chain of EZH2 (Y641F) (O75530 whole entry partner): as the sequence (O75530 whole entry partner) above
Chain of EZH2 (Y641F) (Q15022 whole entry partner): as the sequence (Q15022 whole entry partner) above
Procedure: as §1, §2, §3, §4

Pfeiffer cells = assay: Experiment on Pfeiffer cell proliferation (CellTiter-Glo); type: cell-based, human; conditions: Homo sapiens
Procedure: 90 uL of cells were added to each well of a 96-well plate at 12000 cells/well, and cell-free culture medium was added to blank control wells. The plate was incubated overnight in an incubator at 37° C., 5% CO2 and 100% relative humidity. The compounds were diluted from highest to lowest concentration gradient with DMSO to make stock solutions at 400-fold and 10-fold concentration. 10 μL of 10× compound working solution was added to the cell culture plate, and the total concentration of the compound was detected from 10 μM, 9 concentration points in total, and 3-fold serial dilution was performed. 10 μL of DMSO-cell culture medium mixture solution was added to the vehicle control wells and blank control wells. The final concentration of DMSO was 0.25%. The plate was put back in the incubator for another 7 days of culturing.
The cell culture plate cultured for 7 days was taken out of the incubator, and the suspended cells in the 96-well plate were mixed well by pipetting multiple times. 74 uL of fresh cell culture medium was added to a new 96-well plate, and 16 uL of cell suspension was pipetted from the 96-well plate with cells mixed well by pipetting into the new 96-well plate to bring the total volume to 90 uL. Cells in the new 96-well plate were treated with the compound. The new 96-well plate was put back in the incubator for another 7 days of culturing, and then cell viability was detected directly.
84 μL of cell suspension was taken from the cell culture plate for cell viability detection.
CellTiter-Glo buffer and substrate were thawed and balanced to room temperature. The CellTiter-Glo buffer was added to a bottle of CellTiter-Glo substrate to dissolve the substrate, thereby preparing CellTiter-Glo working solution. The bottle was subjected to slow vortex shaking to completely dissolve the substrate. The cell culture plate was taken out and balanced to room temperature for 30 min. 50 μL of CellTiter-Glo working solution was added to each well. The cell plate was wrapped with aluminum foil to keep out of light. The plate was shaken on an orbital shaker for 2 min to induce cell lysis. The plate was placed at room temperature for 10 min to stabilize the luminescence signals. The luminescence signals were detected on 2104 En Vision plate reader.
Inhibition rates of compounds at different concentrations were calculated in Excel, followed by plotting the inhibition curves and calculating relevant parameters including minimum (%), maximum (%), and absolute IC50 using GraphPad Prism software.

EZH2 (wt) = EZH2 (wt) (Homo sapiens (Human), UniProt Q15910); assay: Test on EZH2 (wt) inhibitory activity ([3H]-SAM Flashplate); type: biochemical
Chain of EZH2 (wt) (Q15910 whole entry): as the sequence (Q15910 whole entry Y641N) above, with N641Y counted along it
Chain of EZH2 (wt) (O75530 whole entry partner): as the sequence (O75530 whole entry partner) above
Chain of EZH2 (wt) (Q15022 whole entry partner): as the sequence (Q15022 whole entry partner) above
Procedure: Protocols Compounds at different concentrations were dissolved in 100% DMSO and transferred to test plates, and the final concentration of DMSO was 1%. The enzyme solution and the mixture solution of peptide and [3H]-SAM were prepared with 1-fold reaction buffer. 10 uL of enzyme solution was added to the test plate and wells only added with 10 uL of reaction buffer were used as negative control wells. After incubation at room temperature for 15 min, the plate was added with 10 uL of the mixture solution of peptide and [3H]-SAM per well to initiate the reaction which lasts for 60 min at room temperature. The pre-cooled SAM was added to 1-fold reaction buffer to prepare a stop buffer. The reaction was stopped by adding 10 uL of stop buffer per well. 25 uL of solution was transferred from the reaction plate to Flashplate and incubated at room temperature for at least 1 h. The Flashplate was washed 3 times with dH2O+0.1% Tween-20. The plate was read by Microbeta.
as §2, §3, §4

Chain of EZH2 enzyme complex (Q15910 whole entry): as the sequence (Q15910 whole entry Y641N) above, with N641Y counted along it
Chain of EZH2 enzyme complex (O75530 whole entry partner): as the sequence (O75530 whole entry partner) above
Chain of EZH2 enzyme complex (Q15022 whole entry partner): as the sequence (Q15022 whole entry partner) above

CCN(c1cc(O[C@H]2C[C@H](N3C[C@@H](C)O[C@@H](C)C3)C2)cc(C(=O)NCc2c(C)cc(C)[nH]c2=O)c1C)C1CCC(F)(F)CC1 [Example 45, 3-((4,4-difluorocyclohexyl)(ethyl)amino)-N-((4,6-dimethyl-2-oxo-1,2-dihydropyridin-3-yl)methyl)-5-(trans-3-(cis-2,6-dimethylmorpholinyl)cyclobutoxy)-2-methylbenzamide]
IC50 (EZH2 enzyme complex): 10 to 100 nM
IC50 (EZH2 (Y641N)): 5.2 nM
IC50 (WSU-DLCL2): 50 to 500 nM
IC50 (EZH2 (Y641F)): 3 nM
IC50 (Pfeiffer cells; 168 h, Day 7, read-out: IC50 Pfeiffer proliferation Day 7): 69 nM
IC50 (Pfeiffer cells; 336 h, Day 14, read-out: IC50 Pfeiffer proliferation Day 14): 9.7 nM
IC50 (EZH2 (wt)): 2.3 nM
